In brackets after ≈: the same amount, converted by molar mass.
Assays:
[1] = test system: Hepatitis C virus; test: Antiviral activity against Hepatitis C virus H77c genotype 1a infected in human HuH7 cells after 3 days by FRET assay; assay type: functional, organism-based, Hepacivirus hominis; settings: genotype 1a H77, Huh-7, 72 h
[2] = test system: Hepatitis C virus; test: Antiviral activity against Hepatitis C virus Con1 genotype 1b infected in human HuH7 cells after 3 days by FRET assay in presence of 40% human serum; assay type: functional, organism-based, Hepacivirus hominis; settings: isolate Con1, Huh-7, 72 h
[3] = molecular target: RNA-directed RNA polymerase (Hepacivirus hominis, UniProt O39930, P495A); test: Inhibition of HCV Con1 genotype 1b NS5B RNA dependent RNA polymerase P495A mutant-mediated incorporation of radiolabeled nucleotides by scintillation proximity assay; set-up: species or system Hepatitis C virus (isolate Con1)
[4] = test system: Hepatitis C virus; test: Antiviral activity against Hepatitis C virus Con1 genotype 1b infected in human HuH7 cells after 3 days by FRET assay; assay type: functional, organism-based, Hepacivirus hominis; settings: isolate Con1, Huh-7, 72 h
[5] = Cytotoxicity against human HuH7 cells by Alamar blue assay; assay type: cell-based; settings: Huh-7 cells
[6] = Inhibition of HCV Con1 genotype 1b recombinant wild-type NS5B polymerase-mediated incorporation of radiolabeled nucleotides by scintillation proximity assay; set-up: species or system Hepatitis C virus (isolate Con1)
[7] = Drug uptake in rat liver at 5 mg/kg, iv after 4 hrs; assay type: ADME, organism-based; set-up: dose 5 mg/kg, route intravenous; settings: read-out: Drug uptake
[8] = Drug uptake in rat liver at 10 mg/kg, po after 4 hrs; assay type: ADME, organism-based; set-up: dose 10 mg/kg, route oral; settings: read-out: Drug uptake
[9] = AUC (0 to 4 hrs) in rat at 10 mg/kg, po; assay type: ADME, organism-based; set-up: time < 4 hr, dose 10 mg/kg, route oral; settings: plasma
[10] = Permeability of the compound at pH 7.4 by PAMPA; assay type: physicochemical; settings: read-out: permeability
[11] = Plasma clearance in rat at 5 mg/kg, iv; assay type: ADME, organism-based; set-up: dose 5 mg/kg, route intravenous
[12] = Plasma concentration in rat at 10 mg/kg, po after 4 hrs; assay type: ADME, organism-based; set-up: dose 10 mg/kg, route oral
[13] = test system: Liver microsome; settings: human, microsomes
[14] = test system: Liver microsome; settings: rat, microsomes
[15] = Plasma concentration in rat at 5 mg/kg, iv after 4 hrs; assay type: ADME, organism-based; set-up: dose 5 mg/kg, route intravenous
[16] = AUC (0 to 4 hrs) in rat at 5 mg/kg, iv; assay type: ADME, organism-based; set-up: time < 4 hr, dose 5 mg/kg, route intravenous; settings: plasma
[17] = molecular target: T1, Nuclear receptor subfamily 1 group I member 2 (Homo sapiens, UniProt O75469); test: Transactivation of human PXR expressed in human HepG2 cells by luciferase reporter gene assay; assay type: cell-based
T1 sequence (O75469 whole entry): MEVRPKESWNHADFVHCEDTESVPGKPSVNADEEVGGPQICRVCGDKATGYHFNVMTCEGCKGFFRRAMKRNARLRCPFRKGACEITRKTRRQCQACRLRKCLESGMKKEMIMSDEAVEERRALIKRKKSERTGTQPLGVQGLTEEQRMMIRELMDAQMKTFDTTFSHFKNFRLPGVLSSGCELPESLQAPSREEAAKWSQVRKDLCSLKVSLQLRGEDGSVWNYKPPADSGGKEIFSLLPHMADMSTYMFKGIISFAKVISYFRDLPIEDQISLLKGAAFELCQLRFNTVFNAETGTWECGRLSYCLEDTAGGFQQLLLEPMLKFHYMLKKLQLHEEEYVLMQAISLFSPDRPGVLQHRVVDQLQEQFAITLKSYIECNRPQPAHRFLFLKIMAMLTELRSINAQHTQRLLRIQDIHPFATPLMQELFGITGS

[18] = Solubility of the compound in amorphous form in phosphate buffer at pH 6.5; assay type: physicochemical
[19] = molecular target: Cytochrome P450 2C9 (Homo sapiens, UniProt P11712); test: Inhibition of CYP2C9 in human liver microsomes after 30 mins in presence of NADPH; assay type: ADME
[20] = molecular target: Voltage-gated inwardly rectifying potassium channel KCNH2 (Homo sapiens, UniProt Q12809); test: Inhibition of human ERG by fluorescence-based thallium flux assay
[21] = molecular target: Sodium channel protein type 5 subunit alpha (Homo sapiens, UniProt Q14524); test: Inhibition of human NaV1.5 expressed in HEK293 cells by fluorescence-based thallium flux assay; assay type: cell-based
[22] = test system: HepG2; test: Cytotoxicity against human HepG2 cells; assay type: cell-based
[23] = molecular target: Cytochrome P450 3A4 (Homo sapiens, UniProt P08684); test: Inhibition of CYP3A4 in human liver microsomes using benzyloxyresorufin as substrate after 30 mins in presence of NADPH; assay type: ADME
[24] = molecular target: Cytochrome P450 2D6 (Homo sapiens, UniProt P10635); test: Inhibition of CYP2D6 in human liver microsomes after 30 mins in presence of NADPH; assay type: ADME
[25] = molecular target: T2, Cytochrome P450 1A2 (Homo sapiens, UniProt P05177); test: Inhibition of CYP1A2 in human liver microsomes after 30 mins in presence of NADPH; assay type: ADME
T2 sequence (P05177 whole entry): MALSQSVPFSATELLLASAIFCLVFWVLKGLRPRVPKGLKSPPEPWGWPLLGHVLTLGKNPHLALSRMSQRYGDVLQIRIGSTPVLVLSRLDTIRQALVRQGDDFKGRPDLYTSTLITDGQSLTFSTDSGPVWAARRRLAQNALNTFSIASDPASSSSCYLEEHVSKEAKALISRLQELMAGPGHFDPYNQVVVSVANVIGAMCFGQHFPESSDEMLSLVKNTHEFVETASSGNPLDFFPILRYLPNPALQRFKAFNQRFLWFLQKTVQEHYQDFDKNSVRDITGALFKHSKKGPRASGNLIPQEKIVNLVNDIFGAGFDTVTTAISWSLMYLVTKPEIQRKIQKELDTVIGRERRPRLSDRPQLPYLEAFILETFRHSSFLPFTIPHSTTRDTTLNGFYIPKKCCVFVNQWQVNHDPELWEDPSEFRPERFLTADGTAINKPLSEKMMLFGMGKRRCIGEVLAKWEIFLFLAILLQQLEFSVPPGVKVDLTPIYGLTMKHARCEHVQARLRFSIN

[26] = molecular target: Cytochrome P450 2C19 (Homo sapiens, UniProt P33261); test: Inhibition of CYP2C19 in human liver microsomes after 30 mins in presence of NADPH; assay type: ADME
[27] = molecular target: T3, PXR (NR1I2) (Homo sapiens, UniProt O75469); test: Transactivation of human PXR expressed in human HepG2 cells by luciferase reporter gene assay relative to control; assay type: cell-based; settings: HepG2 cells expressing human PXR, read-out: %max
T3 sequence (O75469 whole entry): T1 sequence (O75469 whole entry)

Cytochrome P450 2C19, sequence (P33261 whole entry): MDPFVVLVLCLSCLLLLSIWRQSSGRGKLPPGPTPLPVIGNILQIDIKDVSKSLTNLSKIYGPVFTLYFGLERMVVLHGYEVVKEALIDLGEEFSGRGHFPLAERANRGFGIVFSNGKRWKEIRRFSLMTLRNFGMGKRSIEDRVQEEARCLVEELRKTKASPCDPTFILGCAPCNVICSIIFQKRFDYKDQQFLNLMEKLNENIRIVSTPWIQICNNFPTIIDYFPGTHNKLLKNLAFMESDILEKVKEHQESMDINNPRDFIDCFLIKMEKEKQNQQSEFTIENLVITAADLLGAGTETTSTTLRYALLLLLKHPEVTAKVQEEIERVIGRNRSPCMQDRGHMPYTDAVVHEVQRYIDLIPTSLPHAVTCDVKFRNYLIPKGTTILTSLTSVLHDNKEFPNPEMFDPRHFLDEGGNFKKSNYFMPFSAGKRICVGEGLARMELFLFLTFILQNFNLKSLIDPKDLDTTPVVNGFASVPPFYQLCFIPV
Cytochrome P450 2D6, sequence (P10635 whole entry): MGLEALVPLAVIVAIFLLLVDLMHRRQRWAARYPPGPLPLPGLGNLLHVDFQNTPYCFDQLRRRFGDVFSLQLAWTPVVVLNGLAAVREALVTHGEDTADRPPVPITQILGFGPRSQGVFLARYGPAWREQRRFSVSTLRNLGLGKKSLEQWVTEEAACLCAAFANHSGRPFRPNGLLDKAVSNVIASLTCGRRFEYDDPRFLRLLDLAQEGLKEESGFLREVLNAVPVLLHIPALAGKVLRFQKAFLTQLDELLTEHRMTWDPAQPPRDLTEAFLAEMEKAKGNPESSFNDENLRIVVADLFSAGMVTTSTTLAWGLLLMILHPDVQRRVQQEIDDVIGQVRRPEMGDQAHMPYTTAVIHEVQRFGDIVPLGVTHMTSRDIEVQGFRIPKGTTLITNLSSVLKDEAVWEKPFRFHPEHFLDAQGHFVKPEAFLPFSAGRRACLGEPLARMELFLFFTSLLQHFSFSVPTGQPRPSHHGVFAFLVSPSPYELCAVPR
Cytochrome P450 3A4, sequence (P08684 whole entry): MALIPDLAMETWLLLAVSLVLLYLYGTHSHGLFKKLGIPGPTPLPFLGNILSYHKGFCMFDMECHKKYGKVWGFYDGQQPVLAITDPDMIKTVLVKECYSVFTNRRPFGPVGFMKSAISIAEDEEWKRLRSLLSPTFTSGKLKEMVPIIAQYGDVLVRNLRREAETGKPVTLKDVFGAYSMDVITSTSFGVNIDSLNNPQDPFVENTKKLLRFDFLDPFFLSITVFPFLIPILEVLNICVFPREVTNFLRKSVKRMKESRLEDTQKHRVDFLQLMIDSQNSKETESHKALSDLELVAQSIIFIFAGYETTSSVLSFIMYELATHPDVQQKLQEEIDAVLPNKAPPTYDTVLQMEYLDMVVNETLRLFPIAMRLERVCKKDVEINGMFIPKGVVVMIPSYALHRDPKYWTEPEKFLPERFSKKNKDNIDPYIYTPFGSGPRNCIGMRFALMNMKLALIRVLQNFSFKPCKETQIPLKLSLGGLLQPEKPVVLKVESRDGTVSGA
Cytochrome P450 2C9, sequence (P11712 whole entry): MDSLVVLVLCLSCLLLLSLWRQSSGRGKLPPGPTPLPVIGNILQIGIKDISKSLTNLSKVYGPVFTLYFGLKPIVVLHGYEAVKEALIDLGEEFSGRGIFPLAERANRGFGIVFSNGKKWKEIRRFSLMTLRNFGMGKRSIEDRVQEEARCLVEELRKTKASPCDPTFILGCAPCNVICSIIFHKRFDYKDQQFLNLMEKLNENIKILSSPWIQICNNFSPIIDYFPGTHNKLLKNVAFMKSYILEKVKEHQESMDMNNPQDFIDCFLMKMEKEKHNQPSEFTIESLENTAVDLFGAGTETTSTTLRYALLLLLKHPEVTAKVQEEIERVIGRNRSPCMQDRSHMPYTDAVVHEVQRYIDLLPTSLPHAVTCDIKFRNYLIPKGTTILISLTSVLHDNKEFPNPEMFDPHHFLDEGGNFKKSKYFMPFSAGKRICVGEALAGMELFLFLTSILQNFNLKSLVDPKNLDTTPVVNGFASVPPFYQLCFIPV
Voltage-gated inwardly rectifying potassium channel KCNH2, sequence (Q12809 whole entry): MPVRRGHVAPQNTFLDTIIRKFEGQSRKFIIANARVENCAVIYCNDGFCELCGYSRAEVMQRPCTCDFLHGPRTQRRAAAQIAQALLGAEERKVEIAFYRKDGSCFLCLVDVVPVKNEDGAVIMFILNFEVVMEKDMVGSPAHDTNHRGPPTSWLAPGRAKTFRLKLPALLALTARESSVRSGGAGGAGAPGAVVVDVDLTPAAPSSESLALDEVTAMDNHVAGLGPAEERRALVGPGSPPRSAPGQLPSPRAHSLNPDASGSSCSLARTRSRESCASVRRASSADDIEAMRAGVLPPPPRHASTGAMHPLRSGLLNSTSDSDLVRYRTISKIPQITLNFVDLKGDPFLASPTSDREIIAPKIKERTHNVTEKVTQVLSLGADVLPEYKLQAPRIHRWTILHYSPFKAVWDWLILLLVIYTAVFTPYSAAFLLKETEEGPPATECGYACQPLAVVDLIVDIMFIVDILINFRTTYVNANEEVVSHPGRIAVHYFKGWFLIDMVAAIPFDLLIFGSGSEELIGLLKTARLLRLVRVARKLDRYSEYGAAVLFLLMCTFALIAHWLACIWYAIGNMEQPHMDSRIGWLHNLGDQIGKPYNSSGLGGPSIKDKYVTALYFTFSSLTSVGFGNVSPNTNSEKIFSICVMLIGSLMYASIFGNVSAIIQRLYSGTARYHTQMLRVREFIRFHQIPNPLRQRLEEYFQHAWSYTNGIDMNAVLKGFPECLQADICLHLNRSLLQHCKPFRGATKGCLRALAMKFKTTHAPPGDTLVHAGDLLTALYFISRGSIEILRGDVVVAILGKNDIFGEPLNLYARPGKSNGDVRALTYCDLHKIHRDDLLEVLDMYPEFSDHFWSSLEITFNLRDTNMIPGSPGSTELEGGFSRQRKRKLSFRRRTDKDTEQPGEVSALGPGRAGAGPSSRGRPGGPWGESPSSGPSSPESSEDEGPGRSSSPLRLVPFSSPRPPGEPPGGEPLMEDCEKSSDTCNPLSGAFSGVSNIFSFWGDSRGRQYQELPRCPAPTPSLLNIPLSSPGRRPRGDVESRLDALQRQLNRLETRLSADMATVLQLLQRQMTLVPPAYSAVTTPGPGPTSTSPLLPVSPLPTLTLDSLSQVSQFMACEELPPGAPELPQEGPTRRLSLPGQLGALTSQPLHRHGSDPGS
RNA-directed RNA polymerase, sequence (O39930 entry or part of it P495A): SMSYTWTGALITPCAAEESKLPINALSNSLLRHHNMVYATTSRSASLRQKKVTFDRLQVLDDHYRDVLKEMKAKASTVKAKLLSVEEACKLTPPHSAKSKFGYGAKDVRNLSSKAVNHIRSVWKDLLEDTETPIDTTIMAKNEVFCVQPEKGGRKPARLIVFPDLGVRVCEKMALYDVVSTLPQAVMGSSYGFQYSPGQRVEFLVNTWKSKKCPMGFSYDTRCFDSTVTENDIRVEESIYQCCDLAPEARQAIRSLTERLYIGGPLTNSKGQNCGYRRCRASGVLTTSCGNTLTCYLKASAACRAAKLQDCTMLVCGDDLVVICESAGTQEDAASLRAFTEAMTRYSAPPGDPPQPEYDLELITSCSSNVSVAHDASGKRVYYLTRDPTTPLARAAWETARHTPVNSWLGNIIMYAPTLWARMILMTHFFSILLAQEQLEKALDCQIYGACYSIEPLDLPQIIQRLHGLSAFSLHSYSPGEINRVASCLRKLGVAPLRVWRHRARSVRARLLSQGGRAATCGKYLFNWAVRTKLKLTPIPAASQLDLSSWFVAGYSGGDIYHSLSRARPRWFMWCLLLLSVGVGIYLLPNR

| SMILES | EC50 [1] [nM] | EC50 [2] [nM] | EC50 [3] [nM] | EC50 [4] [nM] | CC50 [5] [nM] | IC50 [6] [nM] | Papp [10] [×10⁻⁶ cm/s] | Stability [13] [%] | Stability [14] [%] | EC50 [17] [nM] | solubility [18] [µg/mL] | further results |
| --- | --- | --- | --- | --- | --- | --- | --- | --- | --- | --- | --- | --- |
| O=C(O)c1ccc2c(C3CCCCC3)c3n(c2c1)C[C@@]1(C(=O)N2CCOCC2)C[C@H]1c1ccccc1-3 | 41 | 484 | 380 | 51 | > 10000 | 22 |  |  |  |  |  |  |
| COc1ccc2c(c1)C1CC1(C(=O)N1CC(C)(O)C1)Cn1c-2c(C2CCCCC2)c2ccc(C(=O)NS(=O)(=O)N(C)C)cc21 (racemic) | 14 | 56 |  | 20 | > 10000 |  | 30 | 81 | 85 | > 50000 | 93 (≈ 150 µM) | concentration at 4 h [7]: 9600 nM; concentration at 4 h [8]: 3700 nM; AUC(0-t) at 4 h [9]: 0.139 µM·h; clearance [11]: 14 mL/min/kg; concentration at 4 h [12]: 25 nM; concentration at 4 h [15]: 29 nM; AUC(0-t) at 4 h [16]: 9.8 µM·h |
| CN(C)S(=O)(=O)NC(=O)c1ccc2c(C3CCCCC3)c3n(c2c1)CC1(C(=O)N2CCOCC2)CC1c1ccccc1-3 (racemic) | 44 | 821 | 165 | 82 | > 10000 | 94 |  |  |  |  |  |  |
| COc1ccc2c(c1)C1CC1(C(=O)N1CCOCC1)Cn1c-2c(C2CCCCC2)c2ccc(C(=O)NS(=O)(=O)N(C)C)cc21 (racemic) | 54 | 300 | 385 | 61 | > 10000 | 22 |  |  |  |  |  |  |
| COc1ccc2c(c1)C1CC1(C(=O)N1C[C@@H](C)N(C(C)=O)[C@@H](C)C1)Cn1c-2c(C2CCCCC2)c2ccc(C(=O)NS(=O)(=O)N(C)C)cc21 (mixture of isomers) | 24 | 35 |  | 38 | > 10000 |  | 48 | 100 | 93 | > 50000 | 17 (≈ 24.6 µM) | concentration at 4 h [7]: 126 nM; concentration at 4 h [8]: 345 nM; AUC(0-t) at 4 h [9]: 0.277 µM·h; clearance [11]: 37 mL/min/kg; concentration at 4 h [12]: 14 nM; concentration at 4 h [15]: 9 nM; AUC(0-t) at 4 h [16]: 3.84 µM·h |
| CCN1CC2CC(C1)N2C(=O)[C@]12C[C@H]1c1cc(OC)ccc1-c1c(C3CCCCC3)c3ccc(C(=O)NS(=O)(=O)N(C)C)cc3n1C2 | 4 |  |  | 4 |  |  | 27 |  |  | > 50000 | 450 (≈ 682 µM) | EC50 [19]: > 40000 nM; EC50 [20]: 6000 nM; EC50 [21]: 29000 nM; EC50 [22]: 19000 nM; EC50 [23]: 9000 nM; EC50 [24]: > 40000 nM; EC50 [25]: > 40000 nM; EC50 [26]: > 40000 nM |
| COc1ccc2c(c1)C1CC1(C(=O)N1C[C@@H](C)N(C)[C@@H](C)C1)Cn1c-2c(C2CCCCC2)c2ccc(C(=O)NS(=O)(=O)N(C)C)cc21 (mixture of isomers) | 14 | 46 |  | 17 | 8000 |  | 48 | 88 | 99 | > 50000 | 34 (≈ 51.4 µM) | concentration at 4 h [7]: 1860 nM; concentration at 4 h [8]: 9700 nM; AUC(0-t) at 4 h [9]: 0.516 µM·h; clearance [11]: 29 mL/min/kg; concentration at 4 h [12]: 158 nM; concentration at 4 h [15]: 67 nM; AUC(0-t) at 4 h [16]: 4.29 µM·h |
| CN(C)S(=O)(=O)NC(=O)c1ccc2c(C3CCCCC3)c3n(c2c1)CC(C(=O)N1CCOCC1)=Cc1ccccc1-3 | 119 |  | 1100 | 148 | > 10000 | 52 |  |  |  |  |  |  |
| CN(C)S(=O)(=O)NC(=O)c1ccc2c(C3CCCCC3)c3n(c2c1)C[C@@]1(C(=O)N2CCOCC2)C[C@H]1c1ccccc1-3 | 26 | 218 | 240 | 31 | > 10000 | 27 |  |  |  |  |  |  |
| O=C(O)c1ccc2c(C3CCCCC3)c3n(c2c1)C[C@]1(C(=O)N2CCOCC2)C[C@@H]1c1ccccc1-3 | 472 |  | 890 | 336 | > 10000 | 93 |  |  |  |  |  |  |
| COc1ccc2c(c1)C1CC1(C(=O)N1C3CC1CN(Cc1ccccc1)C3)Cn1c-2c(C2CCCCC2)c2ccc(C(=O)NS(=O)(=O)N(C)C)cc21 (racemic) | 35 |  |  | 162 | > 10000 |  | 56 | 80 | 100 | 2000 |  | EC50 [19]: 7000 nM; EC50 [20]: > 80000 nM; EC50 [22]: 22000 nM; EC50 [23]: 13000 nM; EC50 [24]: > 40000 nM; Emax [27]: 22%; EC50 [25]: > 13000 nM; EC50 [26]: 31000 nM |
| COc1ccc2c(c1)C1CC1(C(=O)N1C3CNCC1C3)Cn1c-2c(C2CCCCC2)c2ccc(C(=O)NS(=O)(=O)N(C)C)cc21 (racemic) | 23 | 94 |  | 80 | > 10000 |  | 6 | 97 | 100 | > 50000 |  | EC50 [19]: > 40000 nM; EC50 [20]: 32000 nM; EC50 [22]: > 50000 nM; EC50 [23]: > 40000 nM; EC50 [24]: > 40000 nM; EC50 [25]: > 40000 nM; EC50 [26]: > 40000 nM |

Reference: ChEMBL document CHEMBL3124792, “Discovery and preclinical characterization of the cyclopropylindolobenzazepine BMS-791325, a potent allosteric inhibitor of the hepatitis C virus NS5B polymerase” (J Med Chem, 2014)
